Experimental data: patent US10472395B2, “Cyclic peptide analogs and conjugates thereof” (Sirenas LLC, priority 2015, dated 2019)
Read-outs that look alike come from different tables or passages of the source. Numbered stars: 1 amine (or outer) side, 2 acyl side, 3 side chain; on linkers, the order of the positions; unused ones are H or OH. Bridge positions count the residues as written; N and C are the ends. Square brackets hold non-standard residues; d marks the D form. Peptide text beside a SMILES is read from it. X12 = CC/C=C(\C)[C@@H](O[*:2])[C@@H](C)[C@@H](O)C/C=C(\C)C(=O)[*:1]; Hmp(2R,3S) = CC[C@H](C)[C@@H](O)C(=O)O; dNMeL = CN[C@H](CC(C)C)C(=O)O; NMeA = CN[C@@H](C)C(=O)O; Sar = CNCC(=O)O

What was measured:
HeLa S3 cells = settings: K. Suenaga et al., Bioorg. Med. Chem. Lett. 2008, 18, 3902-3905; cited from earlier work
[1] = tested on: BT-474 human mammary gland ductal carcinoma cells; test: Inhibitory response of test compounds against BT-474 cells (Cell Titer-Glo, 72 h); assay type: cell-based
Experimental: (§1) BT-474 human mammary gland ductal carcinoma cells were seeded in a clear polystyrene 96-well microculture plate (Corning® Costar® 96-well flat bottom plate, Cat.#3997) in a total volume of 90 μL/well. After 24 hours of incubation in a humidified incubator at 37° C. with 5% CO2 and 95% air, 10 μL of 10×, serially diluted test agents in growth medium were added to each well (10 pt dose response curve, highest concentration 10 μM of test agent). After 72 hours of culture in a humidified incubator at 37° C., in an atmosphere of 5% CO2 and 95% air, the plated cells and Cell Titer-Glo® (Promega G7571) reagents were brought to room temperature to equilibrate for 30 minutes. 100 μL of Cell Titer-Glo® reagent was added to each well. The plate was shaken for two minutes and then left to equilibrate for ten minutes. The media/Cell Titer-Glo® reagent was transferred to a white polystyrene 96-well microculture plate (Corning® Costar® 96-well flat bottom plate, Cat.#3917) before reading luminescence on a Tecan GENios microplate reader.
(§2) Percent inhibition of cell growth was calculated relative to untreated control wells. The IC50 value for the test agents was determined using Prism 6.05 by curve-fitting of the data using the following four parameter-logistic equation:
(§3) [formula] where Top is the maximal % of control absorbance, Bottom is the minimal % of control absorbance at the highest agent concentration, Y is the % of control absorbance, X is the agent concentration, IC50 is the concentration of agent that inhibits cell growth by 50% compared to the control cells, and n is the slope of the curve.

HCC1954 cells = test: Inhibitory response of test compounds against HCC1954 cells (method analogous to BT-474); assay type: cell-based
Experimental: as §1, §2, §3
Inhibitory response of test compounds against HCC1954 cells was determined using a method analogous to that used for BT-474 cells.

[2] = tested on: several cancer cell lines; settings: Y. Nakao et al., J. Nat. Prod. 2004, 67, 1332-1340; cited from earlier work

| Compound | IC50 ([1]; Homo sapiens) | IC50 (HCC1954 cells; Homo sapiens) | further results |
| --- | --- | --- | --- |
| CC/C=C(\C)[C@H]1OC(=O)[C@H](C)N(C)C(=O)[C@H](C(C)C)NC(=O)CN(C)C(=O)[C@@H](CC(C)C)N(C)C(=O)[C@H](C(C)C)NC(=O)[C@@H]([C@@H](C)CC)OC(=O)/C(C)=C/C[C@H](O)[C@@H]1C [Aurilide, aurilide] ([Hmp(2R,3S)]V[dNMeL][Sar]V[NMeA]; linker N-C via X12) | – | – | cytotoxicity against HeLa S3 cells (HeLa S3 cells): potent cytotoxicity |
| C/C=C(\C)[C@H]1OC(=O)[C@@H](C)NC(=O)[C@H]([C@H](C)CC)NC(=O)CN(C)C(=O)[C@@H](Cc2ccc(Cl)cc2)N(C)C(=O)[C@H](CCCCN)NC(=O)[C@@H](CC(C)C)OC(=O)/C(C)=C/CC[C@@H]1C [Compound 118] | 200 to 10000 nM | 200 to 10000 nM | – |
| C/C=C(\C)[C@H]1OC(=O)[C@@H](C)NC(=O)[C@H]([C@H](C)CC)NC(=O)CN(C)C(=O)[C@@H](Cc2ccc(Cl)cc2)N(C)C(=O)[C@H](CCCCNC(=O)OC(C)(C)C)NC(=O)[C@@H](CC(C)C)OC(=O)/C(C)=C/CC[C@@H]1C [Compound 119] | < 20 nM | < 20 nM | – |
| C/C=C(\C)[C@H]1OC(=O)[C@@H](C)NC(=O)[C@H](C(C)CC)NC(=O)CN(C)C(=O)[C@@H](Cc2ccccc2)N(C)C(=O)[C@H](C)NC(=O)[C@@H](CC(C)C)OC(=O)/C(C)=C/C[C@H](CC(=O)NCCOCCOCCOCCO)[C@@H]1C (some centres unmarked) [Compound 122] | < 20 nM | 20 to 200 nM | – |
| C/C=C(\C)[C@H]1OC(=O)[C@@H](C)NC(=O)[C@H](C(C)CC)NC(=O)CN(C)C(=O)[C@@H](Cc2ccccc2)N(C)C(=O)[C@H](C)NC(=O)[C@@H](CC(C)C)OC(=O)/C(C)=C/C[C@H](OC(=O)NCCO)[C@@H]1C (some centres unmarked) [Compound 123] | < 20 nM | < 20 nM | – |
| C/C=C(\C)[C@H]1OC(=O)[C@@H](C)NC(=O)[C@H](C(C)CC)NC(=O)CN(C)C(=O)[C@@H](Cc2c[nH]c3ccccc23)N(C)C(=O)[C@H](C)NC(=O)[C@@H](CC(C)C)OC(=O)/C(C)=C/C[C@H](O)[C@@H]1C (some centres unmarked) [Compound 125] | < 20 nM | 20 to 200 nM | – |
| C/C=C(\C)[C@H]1OC(=O)[C@@H](C)NC(=O)[C@H](C(C)CC)NC(=O)CN(C)C(=O)[C@@H](Cc2ccccc2)N(C)C(=O)[C@H](C)NC(=O)[C@@H](CC(C)C)OC(=O)/C(C)=C/C[C@H](OC(=O)NCCCOCCOCCOCCCNC(=O)CCSSc2ccccn2)[C@@H]1C (some centres unmarked) [Compound L12] | – | – | IC50 [1]: 200 to 10000 nM; IC50 (HCC1954 cells): > 10000 nM |
| C/C=C(\C)[C@H]1OC(=O)[C@@H](C)NC(=O)[C@H](C(C)CC)NC(=O)CN(C)C(=O)[C@@H](Cc2ccccc2)N(C)C(=O)[C@H](C)NC(=O)[C@@H](CC(C)C)OC(=O)/C(C)=C/C[C@H](O)[C@@H]1C (some centres unmarked) [Kulo-2, kulo-2, reference compound] | < 20 nM | < 20 nM | IC50 ([1]; Homo sapiens, 72 h, Cell Titer-Glo): 1.76 nM; cytotoxicity against several cancer cell lines [2]: potent cytotoxicity |
